Measurements published in ChEMBL document CHEMBL3508140 (2016).

Columns and labels:
[1] = Terminal half-life of 4'-epiadriamycin following intravenous 4'-epiadriamycin at 1.27 mg.Kg-1 dose in dog; format: ADME, organism-based, Canis lupus familiaris; settings: Beagle, plasma
[2] = Volume of distribution of 4'-epiadriamycin intravenous 4'-epiadriamycin at 1.27 mg.Kg-1 dose in dog; format: ADME, organism-based, Canis lupus familiaris; settings: Beagle, plasma
[3] = Mortality occurred following reference intravenous epirubicin at 1 mg.Kg-1 per week in rat; format: toxicity, organism-based, SD; settings: in vivo
[4] = Incidence of persistent proteinuria following reference intravenous epirubicin at 1 mg.Kg-1 per week in rat; format: toxicity, organism-based, SD; settings: in vivo
[5] = Volume of distribution at steady state following intravenous epirubicin at 150 mg.m-2 dose in patients with advanced cancer; format: ADME, organism-based; settings: human, plasma, read-out: Vss
[6] = Volume of distribution at steady state following epirubicin at 60 mg.m-2 dose in patients with cancer; format: ADME, organism-based; settings: human, plasma, read-out: Vss
[7] = Urinary excretion of epirubicin following epirubicin at 60-150 mg.m-2 dose in cancer patients; format: ADME, organism-based; settings: human, urine; read-out: Compound recovery
[8] = Urinary excretion of epirubicin following epirubicin at 75-90 mg.m-2 dose in cancer patients; format: ADME, organism-based; settings: human, urine; read-out: Compound recovery
[9] = Mean AUC of epirubicin following intravenous epirubicin at 60 mg.m-2 dose in cancer patients; format: ADME, organism-based; settings: human, plasma
[10] = Plasma clearance of epirubicin following intravenous epirubicin at 60-90 mg.m-2 dose in cancer patients; format: ADME, organism-based; settings: human, in vivo
[11] = Terminal elimination of metabolite of epirubicin following intravenous epirubicin at 30-90 mg.m-2 dose in cancer patients; format: ADME, organism-based, Plasma; settings: human, in vivo
[12] = Volume of distribution as steady state of epirubicin following intravenous epirubicin at 60 mg.m-2 dose in cancer patients; format: ADME, organism-based, Plasma; settings: human, in vivo
[13] = Initial phase half-life of epirubicin following intravenous epirubicin at 75 mg.m-2 dose in cancer patients; format: ADME, organism-based, Plasma; settings: human, in vivo
[14] = Intermediate phase half-life of epirubicin following intravenous epirubicin at 70 mg.m-2 dose in cancer patients; format: ADME, organism-based, Plasma; settings: human, in vivo
[15] = Intermediate phase half-life of epirubicin following intravenous epirubicin at 40-60 mg.m-2 dose in cancer patients; format: ADME, organism-based, Plasma; settings: human, in vivo
[16] = Terminal elimination of metabolite of epirubicin following intravenous epirubicin at 50 mg.m-2 dose in cancer patients; format: ADME, organism-based, Plasma; settings: human, in vivo
[17] = Initial phase half-life of epirubicin following intravenous epirubicin at 75-90 mg.m-2 dose in cancer patients; format: ADME, organism-based, Plasma; settings: human, in vivo
[18] = Half-life of epirubicin in plasma following single intravenous epirubicin at 10 mg.Kg-1 dose in female mouse bearing colon tumor; format: ADME, organism-based; settings: BALB/c
[19] = Half-life of epirubicin in heart following single intravenous epirubicin at 10 mg.Kg-1 dose in female mouse bearing colon tumor; format: ADME, organism-based; settings: BALB/c
[20] = Half-life of epirubicin in tumor following single intravenous epirubicin at 10 mg.Kg-1 dose in female mouse bearing colon tumor; format: ADME, organism-based, Neoplasm; settings: BALB/c
[21] = Terminal half-life of epirubicin following intravenous epirubicin at 3 mg.Kg-1 dose in rabbit; format: ADME, organism-based, Oryctolagus cuniculus; settings: both, New Zealand White, plasma
[22] = Terminal half-life of epirubicinol following intravenous epirubicin at 1 mg.Kg-1 dose in rabbit; format: ADME, organism-based, Oryctolagus cuniculus, New Zealand White, Plasma; settings: in vivo
[23] = AUC of epirubicin following intravenous epirubicin emulsion at 1 mg.Kg-1 dose in rabbit; format: ADME, organism-based, Oryctolagus cuniculus; settings: both, New Zealand White, blood
[24] = Plasma clearance of epirubicin following intravenous epirubicin solution at 1 mg.Kg-1 dose in rabbit; format: ADME, organism-based, Oryctolagus cuniculus, Blood; settings: both, New Zealand White
[25] = Terminal half-life of epirubicin following intravenous epirubicin solution at 1 mg.Kg-1 dose in rabbit; format: ADME, organism-based, Oryctolagus cuniculus; settings: both, New Zealand White, blood
[26] = Terminal half-life of epirubicin following intravenous epirubicin emulsion at 1 mg.Kg-1 dose in rabbit; format: ADME, organism-based, Oryctolagus cuniculus; settings: both, New Zealand White, blood
[27] = AUC of epirubicin following intrahepatic epirubicin solution at 1 mg.Kg-1 dose in rabbit; format: ADME, organism-based, Oryctolagus cuniculus; settings: both, New Zealand White, blood

In the case of `COc1cccc2c1C(=O)c1c(O)c3c(c(O)c1C2=O)C[C@@](O)(C(=O)CO)C[C@@H]3O[C@H]1C[C@H](N)[C@@H](O)[C@H](C)O1.Cl` [EPIRUBICIN HYDROCHLORIDE], the half-life [1] is reported as 7.1 min, the Vd [2] is reported as 71.9 L/kg and the Mortality [3] is reported as “OUTCOME = Observed, N_AFFECTED = 5”. For the same compound, the Incidence [4] was “OUTCOME = Observed”, the Vd [5] was 21 L/kg and the Vd [6] was 32 L/kg. It also gave a dose excreted at 168 h [7] of 3.2%, a dose excreted at 48 h [8] of 5.9% and an AUC [9] of 1500 ng·h/mL. The CLp [10] was 30.5 L.h-1.m-2, the t1/2 [11] was 32.2 h and the Vss [12] was 1272 L.m-2. For the same compound, the t1/2 [13] was 5.4 min, the t1/2 [14] was 1.25 h and the t1/2 [15] was 29.4 min. The t1/2 [16] was 21.1 h, the t1/2 [17] was 4.8 min and the half-life [18] was 936 min. The half-life [19] was 636 min, the half-life [20] was 1480 min and the half-life [21] was 1280 min. For the same compound, the t1/2 [22] was 37.8 min, the AUC [23] was 134 ng·h/mL and the clearance [24] was 813 mL/min. For the same compound, the half-life [25] was 63.4 min, the half-life [26] was 37.7 min and the AUC [27] was 65.5 ng·h/mL.
